Among the test systems are COLO 205; HL-60; BT-549; A498; LOX IMVI; Malme-3M; SK-OV-3; T47D; MDA-MB-435; OVCAR-5; M14; 786-0; CAKI-1; IGROV-1; HOP-62; RXF 393; HCT-116; HT-29; Hs-578T; U-251.
What all share (test): NCI tumour cell line growth inhibition, 48 h

Each structure is given as a SMILES string.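 Results reflect a 48-hour exposure of cells in 96-well plates to compound at five concentrations. The concentration for 50% growth inhibition is given as GI50.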 Activity calls are given as the source filed them. Rule as the data show it: active = GI50 up to about 1.1 µM and inactive = higher. Bounds are passed on as bounds.

In the case of `COc1cc2cc(C(=O)N3CC(CCl)c4ccc(N(C)C)cc43)[nH]c2c(OC)c1OC` (configuration not stated), the GI50 with COLO 205 was 0.0851 µM (active); in the experiment with HL-60 it was 0.0277 µM (active); in the experiment on BT-549 it was 0.131 µM (active); in the experiment on A498, 0.0153 µM (active); in the experiment on LOX IMVI, 0.0755 µM (active); with Malme-3M, 0.109 µM (active). Besides, the GI50 with SK-OV-3 is 0.261 µM (active); in the experiment with T47D, 0.078 µM (active); in the experiment with MDA-MB-435 it was 0.168 µM (active); with OVCAR-5, 0.0853 µM (active); with M14, 0.0923 µM (active); in the experiment on 786-0, 0.0361 µM (active). Moreover, the GI50 is 0.0395 µM (active) in the experiment with CAKI-1; 0.0601 µM (active) in the experiment with IGROV-1; 0.128 µM (active) in the experiment on HOP-62; 0.0267 µM (active) in the experiment on RXF 393; 0.0542 µM (active) in the experiment with HCT-116; 0.0817 µM (active) in the experiment on HT-29. Moreover, the results for the GI50 in the experiment on Hs-578T and in the experiment with U-251 were 0.294 µM (active) and 0.0897 µM (active), respectively.
Consider `CC(=O)OC1C(C)OC(OC2C[C@](O)(C(C)=O)Cc3c(O)c4c(c(O)c32)C(=O)c2ccccc2C4=O)C(F)C1OC(C)=O` (some centres not stated), for which the GI50 in the experiment on COLO 205 is 1.98 µM (inactive); in the experiment on HL-60 it was 0.154 µM (active); with BT-549 it was 1.04 µM (active); in the experiment with A498, 0.791 µM (active); with LOX IMVI it was 0.156 µM (active); in the experiment on Malme-3M, 1.14 µM (inactive). Also, the GI50 with SK-OV-3 was 0.617 µM (active); in the experiment on T47D it was 0.522 µM (active); in the experiment on MDA-MB-435, 2.25 µM (inactive); in the experiment with OVCAR-5, 0.916 µM (active); in the experiment with M14, 0.735 µM (active); in the experiment with 786-0, 0.287 µM (active). The GI50 was 0.13 µM (active) with CAKI-1; 0.243 µM (active) in the experiment with IGROV-1; 0.367 µM (active) in the experiment with HOP-62; 2.74 µM (inactive) with RXF 393; 0.318 µM (active) in the experiment on HCT-116; 1.42 µM (inactive) in the experiment on HT-29. Further, the values for the GI50 in the experiment on Hs-578T and in the experiment on U-251 were 0.476 µM (active) and 0.238 µM (active), respectively.
In the case of `Cc1nnc2sc(-c3ccc([N+](=O)[O-])o3)nn12`, the GI50 is 13.2 µM (inactive) in the experiment with COLO 205; 2.47 µM (inactive) in the experiment with HL-60; 10.7 µM (inactive) in the experiment on BT-549; 45.5 µM (inactive) in the experiment on A498; 3.56 µM (inactive) in the experiment on LOX IMVI; 4.08 µM (inactive) in the experiment on Malme-3M. In addition, the GI50 was 18.7 µM (inactive) with SK-OV-3; 20 µM (inactive) in the experiment on T47D; 4.37 µM (inactive) in the experiment with MDA-MB-435; 18.5 µM (inactive) in the experiment with OVCAR-5; 9.91 µM (inactive) in the experiment with M14; 10.3 µM (inactive) in the experiment with 786-0. For the same compound, the GI50 in the experiment on CAKI-1 was 10 µM (inactive); in the experiment with IGROV-1, 15.7 µM (inactive); in the experiment on HOP-62, 15.2 µM (inactive); in the experiment with RXF 393, 11.6 µM (inactive); with HCT-116, 6.46 µM (inactive); with HT-29, 12.9 µM (inactive). The values for the GI50 with Hs-578T and in the experiment on U-251 were 30.3 µM (inactive) and 14.7 µM (inactive), respectively.
For `OC(CC(CC(O)(C(F)(F)F)C(F)(F)F)=NN=C(CC(O)(C(F)(F)F)C(F)(F)F)CC(O)(C(F)(F)F)C(F)(F)F)(C(F)(F)F)C(F)(F)F`, the GI50 in the experiment with COLO 205, with HL-60, with BT-549, with A498, in the experiment with LOX IMVI and in the experiment with Malme-3M was > 10 µM (inactive) in each case. Besides, the GI50 in the experiment with SK-OV-3, in the experiment on T47D, with MDA-MB-435, with OVCAR-5, in the experiment with M14 and with 786-0 was > 10 µM (inactive) in each case. For the same compound, the GI50 in the experiment on CAKI-1, in the experiment on IGROV-1, in the experiment on HOP-62, in the experiment on RXF 393, in the experiment on HCT-116 and in the experiment on HT-29 was > 10 µM (inactive) each time. The GI50 with Hs-578T and with U-251 was > 10 µM (inactive) in each case.
Regarding `CC1=NN(c2nc(N)nc(/C(C#N)=C/c3ccc([N+](=O)[O-])o3)n2)C(C)(C)C1`, the GI50 with COLO 205 was 1.65 µM (inactive); in the experiment with HL-60, 2.35 µM (inactive); with BT-549 it was 3.34 µM (inactive); with A498, 17.8 µM (inactive); in the experiment on LOX IMVI, 1.73 µM (inactive); with Malme-3M, 2.01 µM (inactive). Besides, the GI50 with SK-OV-3 is 21.1 µM (inactive); with T47D it was 2.61 µM (inactive); in the experiment with MDA-MB-435, 2.39 µM (inactive); with OVCAR-5, 1.58 µM (inactive); in the experiment on M14 it was 1.57 µM (inactive); in the experiment on 786-0, 1.57 µM (inactive). Besides, the GI50 in the experiment on CAKI-1 is 1.85 µM (inactive); with IGROV-1 it was 2.05 µM (inactive); with HOP-62 it was 17.2 µM (inactive); in the experiment on RXF 393, 1.75 µM (inactive); in the experiment on HCT-116, 1.45 µM (inactive); in the experiment with HT-29, 2.09 µM (inactive). Besides, the GI50 with Hs-578T is 13.2 µM (inactive); in the experiment on U-251, 5.21 µM (inactive).
On to `CC1=CC(=O)c2ccc3c4ccccc4n(C)c3c2C1=O`, for which the GI50 with COLO 205 was > 85.9 µM (inactive); with HL-60, 22.8 µM (inactive); in the experiment on BT-549, 41.8 µM (inactive); with A498 it was 83.6 µM (inactive); in the experiment with Malme-3M, 6.67 µM (inactive); with SK-OV-3 it was > 100 µM (inactive). Besides, the GI50 in the experiment on T47D is 33.8 µM (inactive); in the experiment with MDA-MB-435, 17.1 µM (inactive); in the experiment with OVCAR-5, > 100 µM (inactive); with M14, 17.8 µM (inactive); in the experiment with 786-0, 56 µM (inactive); in the experiment with CAKI-1 it was 36.2 µM (inactive). The GI50 in the experiment with IGROV-1 was 16.9 µM (inactive); in the experiment on HOP-62, 24.9 µM (inactive); in the experiment on RXF 393, 43.6 µM (inactive); with HCT-116, > 88.5 µM (inactive); in the experiment with HT-29, > 31.6 µM (inactive); in the experiment with Hs-578T it was 62.8 µM (inactive). In addition, the GI50 in the experiment with U-251 is 49 µM (inactive).
As to `O=[N+]([O-])c1ccc(OP(=O)(O)OCC2OC(CP(=O)(O)O)C(O)C2O)cc1` (configuration not stated), the GI50 in the experiment with COLO 205, with HL-60, in the experiment on BT-549, with A498, in the experiment with LOX IMVI and with T47D was > 100 µM (inactive) in each case. Further, the GI50 in the experiment on MDA-MB-435, in the experiment on OVCAR-5, in the experiment on M14, with 786-0, in the experiment with CAKI-1 and in the experiment with IGROV-1 was > 100 µM (inactive) throughout. In addition, the GI50 in the experiment on HOP-62, with RXF 393, in the experiment on HCT-116, in the experiment on HT-29, with Hs-578T and with U-251 was > 100 µM (inactive) in each case.
Consider `O=C(c1cccs1)N(C(=S)OC12CC3CC(CC(C3)C1)C2)c1ccccc1`, for which the GI50 in the experiment with COLO 205 is 17.7 µM (inactive); in the experiment on HL-60, 25 µM (inactive); in the experiment on BT-549, 35.3 µM (inactive); in the experiment with A498, 33.2 µM (inactive); with LOX IMVI, 22.5 µM (inactive); in the experiment with Malme-3M, 43.2 µM (inactive). Also, the GI50 is 28.4 µM (inactive) in the experiment on SK-OV-3; 76.7 µM (inactive) with T47D; 29.8 µM (inactive) in the experiment on MDA-MB-435; 29.4 µM (inactive) with OVCAR-5; 19.2 µM (inactive) with M14; 35.4 µM (inactive) in the experiment on 786-0. For the same compound, the GI50 with CAKI-1 is 28.3 µM (inactive); with HOP-62 it was 47.6 µM (inactive); in the experiment on RXF 393 it was 62.2 µM (inactive); in the experiment with HCT-116, 22.2 µM (inactive); in the experiment with HT-29, 31.8 µM (inactive); in the experiment on Hs-578T, 32 µM (inactive). Further, the GI50 in the experiment on U-251 was 29.1 µM (inactive).
For `C[C@]12CCC(=O)C=C1CC[C@@H]1[C@@H]2CC[C@]2(C)C(=O)/C(=C/c3ccc([N+](=O)[O-])cc3)C[C@@H]12`, the GI50 with COLO 205 was 7.41 µM (inactive); in the experiment with HL-60 it was 3.51 µM (inactive); in the experiment on BT-549, 6.3 µM (inactive); in the experiment on A498, 2.3 µM (inactive); in the experiment on LOX IMVI, 37.9 µM (inactive); in the experiment on Malme-3M it was 70.8 µM (inactive). Further, the GI50 was > 100 µM (inactive) in the experiment on SK-OV-3; 3.48 µM (inactive) in the experiment on T47D; 6.04 µM (inactive) in the experiment on MDA-MB-435; > 100 µM (inactive) in the experiment on OVCAR-5; 29.4 µM (inactive) with M14; 18.6 µM (inactive) in the experiment on 786-0. The GI50 with CAKI-1 is 8.95 µM (inactive); in the experiment with IGROV-1 it was > 100 µM (inactive); with HOP-62, 49.8 µM (inactive); with RXF 393, 13.5 µM (inactive); in the experiment with HCT-116 it was 9.57 µM (inactive); with HT-29 it was > 100 µM (inactive). Also, in the experiment on Hs-578T, the GI50 is > 100 µM (inactive).
`COC1=NC(NC2OCC(O)C(O)C2O)=C(NC(C)=O)CN1C` (configuration not stated): the GI50 in the experiment on COLO 205, in the experiment on HL-60, in the experiment with BT-549, in the experiment on A498, in the experiment on LOX IMVI and in the experiment on Malme-3M was > 100 µM (inactive) in each case. The GI50 in the experiment on SK-OV-3, in the experiment on T47D, in the experiment with MDA-MB-435, in the experiment on OVCAR-5, with M14 and in the experiment on 786-0 was > 100 µM (inactive) in each case. For the same compound, the GI50 in the experiment on CAKI-1, in the experiment on RXF 393, in the experiment on HCT-116, in the experiment on HT-29 and in the experiment on Hs-578T was > 100 µM (inactive) in each case.

The record behind these values is ChEMBL document CHEMBL1201862, “PubChem BioAssay data set” (2004).
